What follows are compounds tested against T1, human PD-L1 / human PD-1 interaction (Homo sapiens, UniProt Q9NZQ7) (assay: ELISA of PD-1/PD-L1 interaction).
T1 construct: purchased R&D (PD-L1); ACRO Biosystems (PD-1, biotin)
Format: binding
Protocol: The activity of Compound 1.041 was assessed with an ELISA assay assessing the direct binding of recombinant PD-1 and PD-L1 proteins (FIG. 1A), a dimerization ELISA assay assessing the direct binding/dimerization of recombinant PD-L1 proteins (FIG. 1B), a cell based assay measuring the downstream signaling following the interaction of PD-1 and PD-L1 using a Luciferase reporter assay with cell lines overexpressing PD-1 and PD-L1 (FIG. 1C), and a mixed lymphocyte reaction assay measuring the functional outcome of upregulation of IFNg secretion, using allogenic primary human immune cells (FIG. 1D). Briefly, the mixed lymophocyte reaction assay was performed as follows: Dendritic cells and CD4+T Cells from unmatched donors were cultured together for 5 days in 96 well-flat bottom plates. Test compound was added as indicated at starting concentration of 1 μM with 1:4 dilutions with DMSO. Supernatants were harvested after 5 days of incubation and detection of human IFNg was performed by ELISA. […]
96 Well plates were coated with 1 μg/mL of human PD-L1 (obtained from R&D) in
PBS overnight at 4° C. The wells were then blocked with 2% BSA in PBS (WN) with 0.05% TWEEN-20 for 1 hour at 37° C. The plates were washed 3 times with PBS/0.05% TWEEN-20 and the compounds were serial diluted (1:5) in dilution medium and added to the ELISA plates. Human PD-1 and biotin 0.3μg/mL (ACRO Biosystems) were added and incubated for 1 hour at 37° C. then washed 3 times with PBS/0.05% TWEEN-20. A second block was performed with 2% BSA in PBS (WN)/0.05% TWEEN-20 for 10 min at 37° C. and was washed 3 times with PBS/0.05% TWEEN-20. Streptavidin—HRP was added for 1 hour at 37° C. then washed 3 times with PBS/0.05% TWEEN-20. TMB substrate was added and reacted for 20 min at 37° C. A stop solution (2 N aqueous H2SO4) was added. The absorbance was read at 450 nm using a micro-plate spectrophotometer.

T1 sequence (Q9NZQ7 19-239 limits assumed): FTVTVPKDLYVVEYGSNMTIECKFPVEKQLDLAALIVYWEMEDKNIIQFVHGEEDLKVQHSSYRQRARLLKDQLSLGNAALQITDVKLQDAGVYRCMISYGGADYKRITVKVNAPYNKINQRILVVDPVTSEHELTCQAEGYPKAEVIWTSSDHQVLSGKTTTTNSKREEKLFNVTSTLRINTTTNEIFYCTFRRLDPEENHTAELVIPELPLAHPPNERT

| IC50 | Structure (SMILES) |
| --- | --- |
| < 5 nM | Cc1c(OCCCN2CC[C@@H](O)C2)cccc1-c1cccc2c1CC[C@@H]2Oc1cc(OCc2cncc(C#N)c2)c(CN[C@H](C(=O)O)[C@@H](C)O)cc1Cl |
| < 5 nM | Cc1c(OCCCN2CCC(F)CC2)cccc1-c1cccc2c1CC[C@@H]2Oc1cc(OCc2cncc(C#N)c2)c(CN[C@H](C(=O)O)[C@@H](C)O)cc1Cl |
| < 5 nM | N#Cc1cncc(COc2cc(O[C@H]3CCc4c(-c5cccc(OCCCN6CCCCC6)c5Cl)cccc43)c(Cl)cc2CN[C@@H]2CCCC[C@@H]2O)c1 |
| < 5 nM | C[C@@H](O)[C@H](NCc1cc(Cl)c(O[C@H]2CCc3c(-c4cccc(OCCCN5CCCCC5)c4Cl)cccc32)cc1OCc1cncc(C#N)c1)C(=O)NS(C)(=O)=O |
| < 5 nM | N#Cc1cncc(COc2cc(O[C@H]3CCc4c(-c5cccc(OCCCN6CCC(F)CC6)c5Cl)cccc43)c(Cl)cc2CN[C@@H]2CCC[C@@H]2O)c1 |
| < 5 nM | N#Cc1cncc(COc2cc(O[C@H]3CCc4c(-c5cccc(OCCCN6CCC(F)CC6)c5Cl)cccc43)c(Cl)cc2CN[C@@H]2CCC[C@H]2O)c1 |
| < 5 nM | C[C@@](CO)(NCc1cc(Cl)c(O[C@H]2CCc3c(-c4cccc(OCCCN)c4Cl)cccc32)cc1OCc1cncc(C#N)c1)C(=O)O |
| < 5 nM | CC1(C)CC(O)CCN1CCCOc1cccc(-c2cccc3c2CC[C@@H]3Oc2cc(OCc3cncc(C#N)c3)c(CN[C@@H]3CCCC[C@@H]3O)cc2Cl)c1Cl (some centres unmarked) |
| < 5 nM | CC1(F)CCN(CCCOc2cccc(-c3cccc4c3CC[C@@H]4Oc3cc(OCc4cncc(C#N)c4)c(CN[C@@H]4CCCC[C@@H]4O)cc3Cl)c2Cl)CC1 |
| < 5 nM | C[C@@H](O)[C@H](NCc1cc(Cl)c(O[C@H]2CCc3c(-c4cccc(OCCCN5CCC(C)(F)CC5)c4Cl)cccc32)cc1OCc1cncc(C#N)c1)C(=O)NS(C)(=O)=O |
| < 5 nM | CC(=O)OC1CCN(CCCOc2cccc(-c3cccc4c3CC[C@@H]4Oc3cc(OCc4cncc(C#N)c4)c(CN[C@@H]4CCCC[C@@H]4O)cc3Cl)c2Cl)CC1 |
| < 5 nM | N#Cc1cncc(COc2cc(O[C@H]3CCc4c(-c5cccc(OCCCN6CCC(F)CC6)c5Cl)cccc43)c(Cl)cc2CN[C@H]2CCC[C@H]2O)c1 |
| < 5 nM | N#Cc1cncc(COc2cc(O[C@H]3CCc4c(-c5cccc(OCCCN6CCC(F)CC6)c5Cl)cccc43)c(Cl)cc2CN[C@H]2CCC[C@@H]2O)c1 |
| < 5 nM | N#Cc1cncc(COc2cc(O[C@H]3CCc4c(-c5cccc(OCCCN6CCC(F)CC6)c5Cl)cccc43)c(Cl)cc2CNCC2CNC(=O)C2)c1 (some centres unmarked) |
| < 5 nM | Cc1c(OCCCN2CCC(F)CC2)cccc1-c1cccc2c1CC[C@@H]2Oc1cc(OCc2cc(C#N)cc(C#N)c2)c(CNC[C@@H]2CCC(=O)N2)cc1Cl |
| < 5 nM | C[C@@](CO)(NCc1cc(Cl)c(O[C@H]2CCc3c(-c4cccc(OCCCN5CCC5)c4Cl)cccc32)cc1OCc1cncc(C#N)c1)C(=O)O |
| < 5 nM | N#Cc1cncc(COc2cc(O[C@H]3CCc4c(-c5cccc(OCCCN6CC7(CCC7)C6)c5Cl)cccc43)c(Cl)cc2CN[C@@H]2CCCC[C@@H]2O)c1 |
| < 5 nM | C[C@@H](O)[C@H](NCc1cc(Cl)c(O[C@H]2CCc3c(-c4cccc(OCCCN5CCC(F)CC5)c4Cl)cccc32)cc1OCc1cncc(C#N)c1)C(=O)NS(C)(=O)=O |
| < 5 nM | N#Cc1cncc(COc2cc(O[C@H]3CCc4c(-c5cccc(OCCCN6CCC(F)CC6)c5Cl)cccc43)c(Cl)cc2CN[C@@H]2CCOC[C@H]2O)c1 |
| < 5 nM | N#Cc1cncc(COc2cc(O[C@H]3CCc4c(-c5cccc(OCCCN6CCC(F)CC6)c5Cl)cccc43)c(Cl)cc2CN[C@@H]2CCOC[C@@H]2O)c1 |
| < 5 nM | N#Cc1cncc(COc2cc(O[C@H]3CCc4c(-c5cccc(OCCCN6CCC(F)CC6)c5Cl)cccc43)c(Cl)cc2CN[C@H]2CCOC[C@H]2O)c1 |
| < 5 nM | N#Cc1cncc(COc2cc(O[C@H]3CCc4c(-c5cccc(OCCCN6CC7(CC(O)C7)C6)c5Cl)cccc43)c(Cl)cc2CN[C@@H]2CCC[C@@H]2O)c1 |
| < 5 nM | N#Cc1cncc(COc2cc(O[C@H]3CCc4c(-c5cccc(OCCCN6CC7(CC(O)C7)C6)c5Cl)cccc43)c(Cl)cc2CN[C@@H]2CCC[C@H]2O)c1 |

Reference: patent publication US20210236476A1, “METHODS OF TREATING CANCER WITH SMALL MOLECULE PD-L1 INHIBITORS” (CHEMOCENTRYX, INC., priority 2018, published 2021)
